Converted amounts (≈) assume the structure as drawn.
System: Mycobacterium tuberculosis
Assay: Antituberculosis activity against multi-drug resistant Mycobacterium tuberculosis
Type: functional

Compound | MIC
CC1(C)CCC(Cc2cc(O)c(-c3ccccc3)c(=O)[nH]2)CC1 | 0.04 µM (≈ 0.0125 µg/mL)
CC(C)Cc1cc(O)c(-c2ccccc2)c(=O)[nH]1 | 2.5 µM (≈ 0.608 µg/mL)

Reference: ChEMBL document CHEMBL3739268, “Structure activity relationships of 4-hydroxy-2-pyridones: A novel class of antituberculosis agents” (Eur J Med Chem, 2015)
